Experimental data from patent US20230374043A1, “Hexadeca Ammonium-Modified Phthalocyanine and Preparation Method and Use Thereof as Photodynamic Drug” (Fuzhou University, priority 2020, published 2023).
Read-outs that look alike come from different tables or passages of the source.

Columns and labels:
[1] = ultraviolet-visible absorption spectrum of zinc phthalocyanine complexes in water; assay type: physicochemical; conditions: for maximum absorption wavelength: in water; for state in water judged from Q band (aggregation / monomer): 4 μM, no surfactant
Description: It was seen from the figure that the Q bands of the zinc phthalocyanine complexes obtained in Examples 1 to 6 in water each were relatively wide and low, showing different degrees of aggregation; while only the Q bands of the zinc phthalocyanine complexes in Examples 7 and 8 in water were strong and sharp peaks.

liver cancer H22 = assay: small animal live imaging in tumor-bearing (liver cancer H22) mouse model; assay type: in vivo; conditions: tail vein; for time at which tumor fluorescence reached its peak: 0.8 mol·Kg^-1, imaging within 24 h
Description: The 2,3-bis[3-(trimethylammonium)phenoxy]zinc phthalocyanine diiodate of Example 2, the 1,2,3,4-bis[3-(trimethylammonium)phenoxy]zinc phthalocyanine tetraiodate of Example 4, the octa-β-[3-(trimethylammonium)phenoxy]zinc phthalocyanine octaiodate of Example 6, and the hexadeca-[3-(trimethylammonium)phenoxy]zinc phthalocyanine hexadecaiodate of Example 8 each were dissolved in a physiological saline and diluted into solutions to be tested. A tumor-bearing (liver cancer H22) mouse model was established according to a method in the literature (ACS Applied Materials & Interfaces, 2019, 11(40), 36435-36443), 100 μL of each phthalocyanine solution (at an administration dosage: […]) was injected through the tail vein, and small animal live imaging was conducted within the next 24 h.

[2] = tested on: human liver cancer cells HepG2; assay: dark toxicity and photodynamic anticancer effect on HepG2 cells (MTT); assay type: cell-based; conditions: for photodynamic anticancer activity: HepG2, after illumination with red light; for photodynamic activity relative to tetrakis-α-(2,4,6-tris(N,N,N-trimethylammonium methyl)-phenoxy)zinc phthalocyanine dodecaiodate: HepG2, under illumination; for dark toxicity on HepG2 cells: without illumination, 2 h incubation
Description: The dark toxicity and photodynamic anticancer effect of the 2,3-bis[3-(trimethyl ammonium)phenoxy]zinc phthalocyanine diiodate of Example 2, the 1,2,3,4-bis[3-(trimethylammonium)phenoxy]zinc phthalocyanine tetraiodate of Example 4, the octa-β-[3-(trimethylammonium)phenoxy]zinc phthalocyanine octaiodate of Example 6, and the hexadeca-[3-(trimethylammonium)phenoxy]zinc phthalocyanine hexadecaiodate of Example 8 on human liver cancer cells HepG2 were tested, respectively.
The main steps were as follows: the above photosensitive medicaments were separately dissolved in water to obtain 1 mM photosensitizers, and then diluted into a cell medium to prepare cell mediums containing zinc phthalocyanine complexes at different concentrations. The human liver cancer cells HepG2 were cultured in the mediums containing zinc phthalocyanine complexes at different concentrations for 2 h; the medium was discarded; and after washing with PBS, the cells were added into a new medium (without zinc phthalocyanine complexes). Illumination experiment group: the cells were irradiated with red light for 30 min at a power of irradiated light at 15 mW cm^−2 using red light with a wavelength greater than 600 nm as an excitation light source; non-illumination control group: the cells were placed in the dark for 30 min. After illumination or non-illumination, the cell viability was examined by MTT.
(§1) The red light with a wavelength greater than 610 nm was provided by a 500 W halogen lamp connected to an insulated water tank and an optical filter greater than 610 nm.

Staphylococcus aureus [3] = assay: dark toxicity and photodynamic antibacterial effect against Staphylococcus aureus (colony count); assay type: cell-based; conditions: for increase compared with the IC90 value of MB: under illumination; for IC90: 4 h incubation, red light >610 nm, 15 mW cm^-2, 30 min, read-out: IC90 value (concentration required to kill 90% of Staphylococcus aureus); for photodynamic antibacterial activity: after illumination with red light; for dark toxicity on Staphylococcus aureus: without illumination, 4 h in PBS, colony count
Description: The dark toxicity and photodynamic antibacterial effect of the 2,3-bis[3-(trimethylammonium)phenoxy]zinc phthalocyanine diiodate of Example 2, the 1,2,3,4-bis[3-(trimethylammonium)phenoxy]zinc phthalocyanine tetraiodate of Example 4, the octa-β-[3-(trimethylammonium)phenoxy]zinc phthalocyanine octaiodate of Example 6, and the hexadeca-[3-(trimethylammonium)phenoxy]zinc phthalocyanine hexadecaiodate of Example 8 against Staphylococcus aureus were tested.
1 mM of the photosensitive medicament was diluted into PBS to prepare a PBS solutions containing zinc phthalocyanine complexes at different concentrations, and then Staphylococcus aureus was cultured in the PBS solutions containing zinc phthalocyanine complexes at different concentrations for 4 h. Illumination experiment group: the cells were irradiated with red light for 30 min at a power of irradiated light at 15 mW cm^−2 using red light with a wavelength greater than 610 nm as an excitation light source; non-illumination control group: the cells were placed in the dark for 30 min. A treated cell suspension was inoculated on a surface of a Luria-Bertani medium, cultured for 48 h, and the dark toxicity and photodynamic activity of the photosensitive medicament to Staphylococcus aureus were examined by the number of colonies.
as §1

Staphylococcus aureus [4] = conditions: comparison value, source not stated, read-out: IC90 value of the commonly used photosensitizer; cited from earlier work
subcutaneous tumors = assay: photodynamic tumor inhibition in KM mice with subcutaneous tumors; assay type: in vivo
Description: The zinc phthalocyanine complex obtained in Example 8 was dissolved in physiological saline and diluted to form a solution to be tested. […] with subcutaneous tumors were taken, and each drug was divided into 4 groups (a medication+laser group, a medication group, a normal saline group, and a normal saline+laser group), with 5 mice in each group; when the tumor grew to (60-100) mm^3, 100 μL of a phthalocyanine aqueous solution was injected intravenously at a dosage of […]. After 1 h, the mice were anesthetized and irradiated with laser of (685±5) nm (at a light intensity of 9.4 mW cm^−2 for 10 min). The mice were continued to be fed, and observed every other day; a weight of the mice was measured and a long diameter and a short diameter of the mice were measured with a vernier caliper for a total of 14 d.

Staphylococcus aureus [5] = assay: photodynamic antibacterial effect on mice infected with Staphylococcus aureus; assay type: in vivo; conditions: 15 d
Description: A photodynamic antibacterial effect of the hexadeca-[3-(trimethylammonium)phenoxy]zinc phthalocyanine hexadecaiodate of Example 8 was tested on mice infected with Staphylococcus aureus.
0.1 mL of a PBS solution containing Staphylococcus aureus colonies was inoculated subcutaneously on the right abdomen of depilated normal-grade KM female mice (weighed about 20 g), at a cell concentration of (1-2)×10^6 CFU·mL^−1, and the mice could be treated two days after inoculation. 4 groups were set up, namely a hexadeca-[3-(trimethylammonium)phenoxy]zinc phthalocyanine hexadecaiodate+laser group, a hexadeca-[3-(trimethylammonium)phenoxy]zinc phthalocyanine hexadecaiodate group, a blank+laser group, and a blank group. Before treatment, a sterile absorbent pad of a wound dressing was soaked with 100 μL of the phthalocyanine aqueous solution (containing 1% CEL), applied to the wound of the treatment group, and fixed with a zinc oxide tape. The wound dressing was applied for 2 h each time, and then the dressing was changed once, and then continued for another 2 h. The blank group was given normal saline for applying. After 4 h, the illumination group was treated with laser at (685±5) nm (with a light intensity of 9.4 mW·cm^−2 for 5 min). The mice were observed and recorded for 15 d. After 15 d, the tissues at the infected site were excised, ground and extracted with 1 mL of a sterilized PBS to obtain a bacterial suspension, diluted by 50 times, spread on the surface of the corresponding Luria-Bertani medium, with parallelly 3 plates for each concentration, cultured in a 37° C. incubator, and then observed and counted after 24 h.

[6] = Homo sapiens, HepG2, read-out: half maximal inhibitory concentration (IC50)

| Compound | maximum absorption wavelength [1] [nm] | state in water judged from Q band (aggregation / monomer) [1] | enrichment in organs (liver cancer H22; 0.8 mol·Kg^-1) | metabolism in vivo (liver cancer H22; 0.8 mol·Kg^-1) | time at which tumor fluorescence reached its peak (liver cancer H22) | photodynamic anticancer activity [2] | photodynamic activity relative to tetrakis-α-(2,4,6-tris(N,N,N-trimethylammonium methyl)-phenoxy)zinc phthalocyanine dodecaiodate [2] [times] | IC50 [2, 6] [nM] | dark toxicity on HepG2 cells ([2]; MTT) | increase compared with the IC90 value of MB (Staphylococcus aureus [3]; Staphylococcus aureus) [times] | IC90 (Staphylococcus aureus [3]; Staphylococcus aureus) [nM] | photodynamic antibacterial activity (Staphylococcus aureus [3]) | dark toxicity on Staphylococcus aureus (Staphylococcus aureus [3]) | accumulation / targeting ability in tumor sites (liver cancer H22; 0.8 mol·Kg^-1) | other results |
| --- | --- | --- | --- | --- | --- | --- | --- | --- | --- | --- | --- | --- | --- | --- | --- |
| 1,2,3,4,8,9,10,11,15,16,17,18,22,23,24,25-hexadeca[3-(dimethylamino)phenoxy]zinc phthalocyanine complex [Example 7] | 727 | monomers |  |  |  |  |  |  |  |  |  |  |  |  |  |
| C[N+](C)(C)c1cccc(Oc2cc3c(cc2Oc2cccc([N+](C)(C)C)c2)C2=[N+]4C3=Nc3c5ccccc5c5[n]3[Zn@]43[n]4c(c6ccccc6c4=N2)=NC2=[N+]3C(=N5)c3ccccc32)c1 [Example 2, 2,3-bis[3-(trimethylammonium)phenoxy]zinc phthalocyanine diiodate] |  |  | enriched to varying degrees in organs such as liver and spleen | low metabolism | 12 h | high photodynamic anticancer activity | 1.23 | 170 | no killing and growth inhibitory effect | 69 | 85 | high photodynamic antibacterial activity | no killing and growth inhibitory effect |  |  |
| C[N+](C)(C)c1cccc(Oc2c(Oc3cccc([N+](C)(C)C)c3)c(Oc3cccc([N+](C)(C)C)c3)c3c(c2Oc2cccc([N+](C)(C)C)c2)C2=Nc4c5ccccc5c5[n]4[Zn@]46[n]7c(c8ccccc8c7=NC3=[N+]24)=NC2=[N+]6C(=N5)c3ccccc32)c1 [Example 4] |  |  |  |  |  | high photodynamic anticancer activity | 1.00 | 210 | no killing and growth inhibitory effect | 80 | 74 | high photodynamic antibacterial activity | no killing and growth inhibitory effect | poor accumulation ability in tumor sites |  |
| C[N+](C)(C)c1cccc(Oc2cc3c(cc2Oc2cccc([N+](C)(C)C)c2)C2=[N+]4C3=Nc3c5cc(Oc6cccc([N+](C)(C)C)c6)c(Oc6cccc([N+](C)(C)C)c6)cc5c5[n]3[Zn]43[n]4c(c6cc(Oc7cccc([N+](C)(C)C)c7)c(Oc7cccc([N+](C)(C)C)c7)cc6c4=NC4=[N+]3C(=N5)c3cc(Oc5cccc([N+](C)(C)C)c5)c(Oc5cccc([N+](C)(C)C)c5)cc34)=N2)c1 [Example 6, 2,3,9,10,16,17,23,24-octa[3-(trimethylammonium)phenoxy]zinc phthalocyanine octaiodate] |  |  | enriched to varying degrees in organs such as liver and spleen | low metabolism | about 12 h |  | 1.50 | 60 | no killing and growth inhibitory effect | 83 | 71 |  | no killing and growth inhibitory effect |  |  |
| CN(C)c1ccc2nc3ccc(=[N+](C)C)cc-3sc2c1 [MB] |  |  |  |  |  |  |  |  |  |  |  |  |  |  | IC90 (Staphylococcus aureus [4]): 5900 nM |
| hexadeca-[3-(dimethylammonium)phenoxy]zinc phthalocyanine hexadecaiodate [Example 8] | 714 | monomers |  | rapid metabolism in vivo | 2 h |  | 2.25 |  | no killing and growth inhibitory effect | 86 |  |  | no killing and growth inhibitory effect | excellent targeting ability | time until basically scavenged by the body's metabolism (liver cancer H22; 0.8 mol·Kg^-1): about 6 h; IC50 ([2]; HepG2, 2 h incubation, red light >600 nm, 15 mW cm^-2, 30 min, MTT, read-out: half maximal inhibitory concentration (IC50)): 40 nM; IC90 (Staphylococcus aureus [3]): 69 nM; toxicity to mice (subcutaneous tumors; i.v. 0.8 mol·Kg^-1, 14 d): no obvious toxicity; tumor inhibition rate (subcutaneous tumors; medication+laser group, i.v. 0.8 mol·Kg^-1, laser (685±5) nm 9.4 mW cm^-2 10 min after 1 h, 14 d): 98.7%; body weight of the mice in the treatment group (subcutaneous tumors; within 14 d): tendency to increase; appearance of infected skin site (Staphylococcus aureus [5]; +laser group): crusted; inhibition rate of Staphylococcus aureus colonies from excised tissue (Staphylococcus aureus [5]; +laser group, topical dressing 2x2 h (1% CEL), laser (685±5) nm 9.4 mW·cm^-2 5 min): 98%; appearance of infected skin site (Staphylococcus aureus [5]; compound without laser): obvious lumps |
